This passage reports TGI results from PubChem BioAssay (NCI).

Some test systems named below: LOX IMVI melanoma; SNB-19 CNS; UACC-257 melanoma; ACHN renal; DU-145 prostate; SF-295 CNS; M14 melanoma; HCT-15 colon; MOLT-4 leukemia; NCI-H23 lung.
Experiment in all cases: NCI anticancer screen, dose series, 48 h

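Method: 48-hour compound exposure of cells in 96-well plates, five concentrations, linear interpolation of endpoints. At the TGI there is no net growth.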

For `COC1C(O)C(O[C@H]2CC[C@@]3(C)C(CC[C@@H]4[C@@H]3CC[C@]3(C)[C@@H](C(C)OC5OC(CO)C(O)C(O)C5O)CC[C@]43O)C2)OC(C)C1OC1OC(CO)C(O)C(O)C1O` (stereo not given in full), the TGI with LOX IMVI melanoma, in the test with SNB-19 CNS, in the test with UACC-257 melanoma, in the test on ACHN renal, in the test on DU-145 prostate and with SF-295 CNS was greater than 100 µM throughout. The TGI with M14 melanoma, with HCT-15 colon, with MOLT-4 leukemia and in the test with NCI-H23 lung was greater than 100 µM each time.
As for `CC(C)[Si](OC/C(=C/COC(C)(C)C)[C@H]1CC=C(C(=O)c2ccccc2N2CN(C)C(=O)N(C)C2)C1)(C(C)C)C(C)C`, the TGI in the test on LOX IMVI melanoma worked out at 4.06 µM; with SNB-19 CNS, 24.9 µM; in the test on UACC-257 melanoma, 23.9 µM; in the test on ACHN renal, 28.6 µM; in the test on DU-145 prostate, 29.9 µM; in the test with SF-295 CNS, 28.9 µM. Also, the TGI in the test on M14 melanoma came to 27 µM; in the test on HCT-15 colon, 27.1 µM; in the test on MOLT-4 leukemia it was 1.67 µM; with NCI-H23 lung, 30 µM.
For the compound `CC1(C)CC(C#Cc2ccccc2)CC(C)(C)N1O`, the TGI with LOX IMVI melanoma was 29.9 µM; in the test with SNB-19 CNS it was greater than 100 µM; in the test on UACC-257 melanoma, 33 µM; in the test on ACHN renal, greater than 100 µM; in the test with DU-145 prostate it was 41.9 µM; in the test on SF-295 CNS, 35.1 µM. The TGI in the test on M14 melanoma is 38.2 µM; in the test with HCT-15 colon it was 29 µM; in the test with MOLT-4 leukemia, greater than 100 µM; in the test on NCI-H23 lung it was 35.2 µM.
As for `c1ccc(C2CC(=NC3CCCCC3)Nc3ccccc3N2)cc1` (stereo not given), the TGI in the test on LOX IMVI melanoma was 55.2 µM; in the test on SNB-19 CNS, greater than 100 µM; with UACC-257 melanoma, greater than 100 µM; in the test with ACHN renal, greater than 100 µM; in the test with DU-145 prostate it was greater than 100 µM; in the test with SF-295 CNS, greater than 100 µM. Also, the TGI in the test with M14 melanoma, in the test on HCT-15 colon, in the test with MOLT-4 leukemia and in the test with NCI-H23 lung was greater than 100 µM each time.
On to `CN(C)c1ccc(Cc2cc3c(O)ccc(O)c3cc(Cc3ccc(N(C)C)cc3)c2=O)cc1`, for which the TGI with LOX IMVI melanoma was 40.7 µM; in the test with SNB-19 CNS, greater than 63.4 µM; with UACC-257 melanoma it was 48.9 µM; with ACHN renal it was 25.3 µM; in the test on DU-145 prostate, greater than 60 µM; in the test on SF-295 CNS it was greater than 100 µM. For the same compound, the TGI was determined as 34.2 µM in the test on M14 melanoma, 58 µM in the test on HCT-15 colon, 8.81 µM in the test on MOLT-4 leukemia and 53.9 µM in the test on NCI-H23 lung.
On to `O=C1C=CC(=O)C(CNc2ccc(C(=O)OCc3ccccc3)cc2)=C1`, for which the TGI amounted to 17.8 µM in the test with LOX IMVI melanoma; 26.5 µM with SNB-19 CNS; 25.2 µM in the test on UACC-257 melanoma; 12.9 µM in the test with ACHN renal; 25.1 µM in the test with DU-145 prostate; 34.5 µM with SF-295 CNS. Further, the TGI in the test with M14 melanoma is 20.8 µM; in the test with HCT-15 colon, 9.1 µM; in the test with MOLT-4 leukemia, greater than 100 µM; in the test with NCI-H23 lung, 30.1 µM.
Consider `O=S1SC(=S)C2C=CC=CC21` (stereo not given), for which the TGI with LOX IMVI melanoma, with SNB-19 CNS, with UACC-257 melanoma, in the test on ACHN renal, in the test on DU-145 prostate and in the test on SF-295 CNS was greater than 100 µM throughout. Besides, the TGI in the test on M14 melanoma, in the test with HCT-15 colon, in the test with MOLT-4 leukemia and with NCI-H23 lung was greater than 100 µM in each case.
Turning to `CCN(CCCl)c1cc(CN(C)C)cc(NC(=O)c2ccc(C(=O)Nc3cccc(CN(C)C)c3)cc2)c1`, the TGI in the test on LOX IMVI melanoma came out at 0.569 µM; in the test on SNB-19 CNS it was 1.34 µM; in the test with UACC-257 melanoma, 3.67 µM; in the test with ACHN renal, 10.7 µM; with DU-145 prostate, 42.6 µM; in the test with SF-295 CNS it was 13.2 µM. Besides, the TGI in the test with M14 melanoma is 17.7 µM; with HCT-15 colon, greater than 100 µM; in the test with MOLT-4 leukemia it was 0.904 µM; in the test with NCI-H23 lung it was 11.2 µM.
Turning to `CCOP(=O)(OCC)OC1CC(n2cc(C)c(=O)n(C)c2=O)OC1CO[Si](C)(C)C(C)(C)C` (stereo not given), the TGI with LOX IMVI melanoma, with SNB-19 CNS, in the test with UACC-257 melanoma, in the test on ACHN renal, with DU-145 prostate and with SF-295 CNS was greater than 100 µM in each case. In addition, the TGI in the test on M14 melanoma, in the test on HCT-15 colon, in the test with MOLT-4 leukemia and in the test on NCI-H23 lung was greater than 100 µM throughout.
Turning to `CCOC(=O)c1sc2ncnc(N)c2c1C`, the TGI in the test on LOX IMVI melanoma, in the test on SNB-19 CNS, with UACC-257 melanoma, in the test on ACHN renal, with DU-145 prostate and in the test on SF-295 CNS was greater than 100 µM in each case. Further, the TGI in the test on M14 melanoma, in the test with HCT-15 colon, in the test on MOLT-4 leukemia and in the test on NCI-H23 lung was greater than 100 µM each time.
With `COc1ccc([C@H]2C=[N+]([O-])O[C@H](OC3CCCC3)[C@@H]2OC(C)=O)cc1OC`, the TGI was 31.3 µM with LOX IMVI melanoma; greater than 100 µM in the test with SNB-19 CNS; 54.3 µM in the test on UACC-257 melanoma; 88.4 µM with ACHN renal; 89.6 µM with DU-145 prostate; greater than 100 µM with SF-295 CNS. Further, the TGI with M14 melanoma was 44.4 µM; in the test on HCT-15 colon, 78.5 µM; in the test on MOLT-4 leukemia, greater than 100 µM; in the test on NCI-H23 lung, 57.2 µM.
On to `COc1cc(C(O)c2ccc3c(c2)OCO3)cc(OC)c1OC` (stereo not given), for which the TGI in the test on LOX IMVI melanoma, with SNB-19 CNS, in the test on UACC-257 melanoma, in the test with ACHN renal, in the test on DU-145 prostate and in the test with SF-295 CNS was greater than 100 µM each time. Moreover, the TGI in the test on M14 melanoma, in the test with HCT-15 colon, with MOLT-4 leukemia and in the test with NCI-H23 lung was greater than 100 µM each time.
As to `O=C(/C=C/c1ccc2c(c1)OCO2)Cc1nc2ccccc2[nH]c1=O`, the TGI with LOX IMVI melanoma was greater than 100 µM; in the test on SNB-19 CNS it was 49.4 µM; with UACC-257 melanoma, 59.5 µM; in the test with ACHN renal it was 74.3 µM; in the test on DU-145 prostate, 71.6 µM; in the test with SF-295 CNS, 52.7 µM. Moreover, the TGI in the test with M14 melanoma, in the test on HCT-15 colon, in the test on MOLT-4 leukemia and with NCI-H23 lung was greater than 100 µM throughout.
